Like-named read-outs stand apart in the source and are kept apart here.

Assay [1] deals with T1, serotonin transporter (Rattus norvegicus, UniProt P31652).
T1 construct: from tissue
Briefly: Inhibition of [3H]paroxetine radioligand binding at the serotonin transporter. The text has this:
(§1) Illustrative in vitro assays for binding are described in Boja et al Ann. NY Acad. Sci. 654:282-291 (1992), which is incorporated herein by reference in its entirety. […] Alternatively, the compounds may be analyzed by their ability to inhibit reuptake of a labelled neurotransmitter in a sample, in particular, in synaptosomes.

For assay [2], the target named is dopamine transporter (UniProt P23977). In kind it is binding.
Text: as §1

For assay [3], the target named is norepinephrine transporter (UniProt Q9WTR4). Briefly: Inhibition of [3H]nisoxetine radioligand binding at the norepinephrine transporter.
Text: as §1

The mark [4] stands for this setting: 5-HT IC50 for inhibition of radioligand binding, 5-HT=[3H] paroxetine.
Where [5] appears, read: IC50 5-HT [3H]-paroxetine, Table IV.
Where [6] appears, read: read-out: DA IC50 for inhibition of radioligand binding, DA=[3H]WIN 35,428.
Setting [7] is: read-out: IC50 DA [3H]-WIN 35,428, Table IV.
Setting [8] is: read-out: IC50 NE [3H]-nisoxetine, Table IV.
Where [9] appears, read: read-out: NEN IC50 for inhibition of radioligand binding, NEN=[3H] nisoxetine.
The mark [10] stands for this setting: 5-HT=[3H] paroxetine, read-out: 5-HT IC50 for inhibition of radioligand binding.

T1 sequence (P31652 whole entry): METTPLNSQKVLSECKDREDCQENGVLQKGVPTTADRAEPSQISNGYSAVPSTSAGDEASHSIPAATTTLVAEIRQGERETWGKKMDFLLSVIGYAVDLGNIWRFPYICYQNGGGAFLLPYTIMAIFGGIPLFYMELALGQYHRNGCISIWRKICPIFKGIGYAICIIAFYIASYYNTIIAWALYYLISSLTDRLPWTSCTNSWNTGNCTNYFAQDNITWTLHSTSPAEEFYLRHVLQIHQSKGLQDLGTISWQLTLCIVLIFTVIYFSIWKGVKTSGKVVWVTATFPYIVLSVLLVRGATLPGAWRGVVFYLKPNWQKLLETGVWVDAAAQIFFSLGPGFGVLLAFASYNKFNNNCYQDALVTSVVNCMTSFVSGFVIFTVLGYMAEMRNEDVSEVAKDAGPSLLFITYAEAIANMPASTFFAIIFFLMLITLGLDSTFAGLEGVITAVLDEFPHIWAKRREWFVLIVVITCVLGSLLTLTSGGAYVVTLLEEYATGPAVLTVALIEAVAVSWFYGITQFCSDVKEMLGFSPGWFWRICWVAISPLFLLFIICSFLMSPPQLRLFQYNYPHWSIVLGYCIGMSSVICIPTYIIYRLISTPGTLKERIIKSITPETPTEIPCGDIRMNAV

In the case of `CN1C2CCC1[C@@H](CCl)[C@@H](c1ccc(Cl)cc1)C2` (stereo partly shown) [RTI-4229-108], the IC50 in assay [1] (setting [4]) stood at 98 nM; in assay [1] (setting [5]) it was 98 ± 8.7 nM; in assay [2] (setting [6]), 2.64 nM; in assay [2] (setting [7]), 2.64 ± 0.31 nM; in assay [3] (setting [8]), 129 ± 15 nM; in assay [3] (setting [9]), 129 nM.
For `COC(=O)C1C2CCC(CC1c1ccc(Cl)cc1)N2` (stereo not shown) [RTI-4229-110], the IC50 amounted to 4.13 nM in assay [1] (setting [10]), 0.62 nM in assay [2] (setting [6]) and 5.45 nM in assay [3] (setting [9]).
`COC(=O)[C@@H]1C2CCC(C[C@@H]1c1ccc(Cl)c(Cl)c1)N2C` (stereo partly shown) [RTI-4229-111]: the IC50 in assay [1] (setting [4]) came to 3.13 nM; in assay [2] (setting [6]), 0.79 nM; in assay [3] (setting [9]), 18 nM.
In the case of `COC(=O)[C@@H]1C2CCC(C[C@@H]1c1ccc(Cl)c(C)c1)N2C` (stereo partly shown) [RTI-4229-112], the figures for the IC50 in assay [1] (setting [4]), in assay [2] (setting [6]) and in assay [3] (setting [9]) were 10.5 nM, 0.82 nM and 36.2 nM, respectively.
In the case of `CN1C2CCC1C(C(=O)Oc1ccccc1)C(c1ccc(Cl)cc1)C2` (stereo not shown) [RTI-4229-113], the IC50 in assay [1] (setting [10]) was 2330 nM; in assay [2] (setting [6]), 1.98 nM; in assay [3] (setting [9]), 2960 nM.
On the same counts, the results for `CC(C)OC(=O)C1C(c2ccc(Cl)cc2)CC2CCC1N2C` (stereo not shown) [RTI-4229-114] are 1400 nM, 1.4 nM and 778 nM.
Consider `CN1C2CCC1C(COc1ccc(I)cc1)C(c1ccc(Cl)cc1)C2` (stereo not shown) [RTI-4229-116], for which the figures for the IC50 in assay [1] (setting [4]), in assay [2] (setting [6]) and in assay [3] (setting [9]) were 1230 nM, 33 nM and 968 nM, respectively.
Turning to `Cc1ccc(C2CC3CCC(C2C(=O)OC(C)C)N3C)cc1` (stereo not shown) [RTI-4229-117], the IC50 in assay [1] (setting [10]) came out at 6090 nM; in assay [2] (setting [6]), 6.45 nM; in assay [3] (setting [9]), 1930 nM.
On to `Cc1noc([C@@H]2C3CCC(C[C@H]2c2ccccc2)N3C)n1` (stereo partly shown) [RTI-4229-119], for which the IC50 in assay [1] (setting [4]) amounted to 40600 nM; in assay [2] (setting [6]), 167 nM; in assay [3] (setting [9]), 6990 nM.
With `Cc1ccc(C2CC3CCC(C2C(=O)Oc2ccccc2)N3C)cc1` (stereo not shown) [RTI-4229-120], the IC50 worked out at 24500 nM in assay [1] (setting [10]), 3.26 nM in assay [2] (setting [6]) and 5830 nM in assay [3] (setting [9]).
As for `CC(C)OC(=O)C1C(c2ccc(I)cc2)CC2CCC1N2C` (stereo not shown) [RTI-4229-121], the IC50 was found to be 55.8 nM in assay [1] (setting [4]), 0.43 nM in assay [2] (setting [6]) and 285 nM in assay [3] (setting [9]).
Consider `CN1C2CCC1C(C(=O)Oc1ccccc1)C(c1ccc(Cl)cc1)C2` (stereo not shown) [RTI-4229-122], for which the IC50 in assay [1] (setting [4]) amounted to 184 nM; in assay [2] (setting [6]), 1.5 nM; in assay [3] (setting [9]), 3790 nM.
Turning to `CN1C2CCC1C(COC(=O)c1ccccc1)C(c1ccc(Cl)cc1)C2` (stereo not shown) [RTI-4229-123], the IC50 in assay [1] (setting [4]) amounted to 3.53 nM; in assay [1] (setting [5]), 3.53 ± 0.58 nM; in assay [2] (setting [6]), 1.78 nM; in assay [2] (setting [7]) it was 1.78 ± 0.09 nM; in assay [3] (setting [8]), 393 ± 30 nM; in assay [3] (setting [9]) it was 393 nM.
With `Cc1noc([C@@H]2C(c3ccccc3)CC3CCC2N3C)n1` (stereo partly shown) [RTI-4229-124], the IC50 stood at 33100 nM in assay [1] (setting [4]), 1030 nM in assay [2] (setting [6]) and 71000 nM in assay [3] (setting [9]).
`Cc1noc(C2C(c3ccc(Cl)cc3)CC3CCC2N3C)n1` (stereo not shown) [RTI-4229-125]: the IC50 in assay [1] (setting [4]) is 2580 nM; in assay [3] (setting [9]), 363 nM.
As for `Cc1noc(C2C(c3ccccc3)CC3CCC2N3C)n1` (stereo not shown) [RTI-4229-126], the results for the IC50 in assay [1] (setting [4]), in assay [2] (setting [6]) and in assay [3] (setting [9]) were 3820 nM, 100 nM and 7880 nM, respectively.
As to `CCC(CC)OC(=O)C1C(c2ccc(C)cc2)CC2CCC1N2C` (stereo not shown) [RTI-4229-127], the IC50 was found to be 4500 nM in assay [1] (setting [10]), 19 nM in assay [2] (setting [6]) and 3440 nM in assay [3] (setting [9]).
Consider `CN1C2CCC1C(c1nc(-c3ccccc3)no1)C(c1ccc(Cl)cc1)C2` (stereo not shown) [RTI-4229-130], for which the IC50 in assay [1] (setting [10]) came to 195 nM; in assay [2] (setting [6]), 1.62 nM; in assay [3] (setting [9]) it was 245 nM.
With `Cc1ccc(C2CC3CCC(C2CN(C)C)N3C)cc1` (stereo not shown) [RTI-4229-132], the IC50 was found to be 208 nM in assay [1] (setting [4]); 208 ± 18 nM in assay [1] (setting [5]); 3.48 nM in assay [2] (setting [6]); 3.48 ± 0.11 nM in assay [2] (setting [7]); 137 ± 11 nM in assay [3] (setting [8]); 137 nM in assay [3] (setting [9]).
For `COC(=O)C1C2CCC(C[C@H]1c1ccccc1)N2C` (stereo partly shown) [RTI-4229-140], the IC50 in assay [2] (setting [6]) came out at 101 nM; in assay [3] (setting [9]), 2080 nM.
As for `Cc1ccc(C2CC3CCC([C@@H]2c2nc(-c4ccccc4)no2)N3C)cc1` (stereo partly shown) [RTI-4229-152], the IC50 in assay [2] (setting [6]) turned out to be 494 nM; in assay [3] (setting [9]), 22700 nM.
Consider `COC(=O)C1C(c2ccc(F)cc2)CC2CCC1N2C` (stereo not shown) [RTI-4229-286], for which the results for the IC50 in assay [1] (setting [4]) and in assay [3] (setting [9]) were 5060 nM and 1230 nM, respectively.
On to `COC(=O)C1C2CCC(CC1c1ccc(C(C)C)cc1)N2` (stereo not shown) [RTI-4229-330], for which the IC50 was 15.1 nM in assay [1] (setting [10]) and 310 nM in assay [2] (setting [6]).
